Results from patent US12304933B2, “Disease treatment drug based on mesenchymal-stem-cell mobilization” (StemRIM Inc., priority 2018, dated 2025).

What was measured:
[1] = test system: mesenchymal stem cells in peripheral blood; assay: Solid-phase culture of peripheral blood after administration of HMGB1 peptide 1-44 (earlier experiments of the inventors); format: in vivo
Source text: In addition, the colonies obtained as a result of culturing, on a solid phase, peripheral blood after administration of a peptide consisting of amino acid residues 1-44 of the human HMGB1 protein (hereinafter, HMGB1 peptide 1-44), which has an activity of mobilizing mesenchymal stem cells into peripheral blood, have been confirmed to have adherability to solid phase and self-renewal ability, and to be PDGFRα positive. They have also been confirmed to have a gene expression profile characteristic to mesenchymal stem cells, based on the results of clustering the transcriptome analysis data and performing gene ontology analysis.
Furthermore, it has been confirmed that the number of colonies obtained by solid-phase culture is larger in the peripheral blood after administration of HMGB1 peptide 1-44 than in the peripheral blood after administration of physiological saline.

psoriasis model mice = assay: Auricular thickness in imiquimod-induced psoriasis model mice; format: in vivo, C57BL/6 mice; settings: 5% imiquimod cream on auricular skin once a day for seven days; 5 mg/kg/day peptide into tail vein for seven days; n=4; FIG. 9
Method: To induce psoriasis by imiquimod, a cream containing 5% imiquimod (Beseruna cream 5%, Mochida Pharmaceutical Co., Ltd.) was used. In the drawing corresponding to the Example of the present application, imiquimod is referred to as IMQ. In addition, the peptide NP-3 (TFA salt) described in Example 1 was used as a test substance.
C57BL/6 mice (7 weeks old, female, body weight about 20 g) were prepared. To induce psoriasis, a cream containing 5% imiquimod was applied on the auricular skin of the mice at an amount of 25 mg/ear/day (1.25 mg/ear/day imiquimod) once a day for seven days. Moreover, mice without imiquimod application (hereinafter, referred to as “normal mice”) were used as a comparison target.
The psoriasis model mice prepared as described above were divided into a peptide-administered group (n=4) and a control group (n=4). […]
During the test period, the auricle thickness of mice was measured daily using a micrometer (manufactured by Mitutoyo Co., Ltd., Product No. CLM1-15QM), and the size of change from the auricle thickness before the start of imiquimod application (Day 0) was calculated. The degree of skin thickening was evaluated using the size of change as an index.

| Substance | number of colonies obtained by solid-phase culture of peripheral blood, compared with peripheral blood after administration of physiological saline [1] | increase in auricular thickness as compared with the control group (psoriasis model mice) |
| --- | --- | --- |
| HMGB1 peptide 1-44: peptide consisting of amino acid residues 1-44 of the human HMGB1 protein, which has an activity of mobilizing mesenchymal stem cells into peripheral blood (MGKGDPKKPRGKMSSYAFFVQTCREEHKKKHPDASVNFSEFSKK; UniProt P09429 1-44, looked up, fragment) | larger | – |
| NP-3: Chemically synthesized fragment peptide of mouse YBX1 protein, positions 174-203, SEQ ID NO: 37 (SAPEGQAQQRRPYRRRRFPPYYMRRPYARR; listed as Mus musculus) | – | suppressed |
